Source: article PMC7576618 (British Journal of Clinical Pharmacology, 2020)
“And” between values parts separate entries of the source, which are not always exact repeats. Identical values can stand only once. “Also recorded” adds a separate entry of the source.

Columns and labels:
[1] = SAD study: urinary excretion; format: in vivo, human; conditions: for CL renal: both, human, oral
[2] = test system: phencyclidine‐induced locomotor hyperactivity in rats; test: Phencyclidine-induced locomotor hyperactivity; conditions: MGS0008 1, 3, 10 mg kg^-1 p.o., phencyclidine 3 mg kg^-1 s.c.
mGlu3 receptor = conditions: read-out: in vitro EC50 for mGlu3 receptor; authors' assay system; cited from earlier work
[3] = SAD study Part B: CSF pharmacokinetics of MGS0008 after 10 mg TS-134; format: in vivo, human; conditions: 10 mg TS‐134 under fed condition
[4] = MAD study: urinary excretion; format: in vivo, human; conditions: urine, MAD Day 14; for CL renal: both, human, oral, CLr, mean (CV[%])
[5] = rats; cited from earlier work
[6] = test system: memantine‐increased 2‐deoxy‐D‐glucose uptake in the prefrontal cortex; test: Memantine-induced 2-deoxy-D-glucose uptake in the prefrontal cortex; conditions: mice; MGS0008 0.3, 1, 3 mg kg^-1 s.c.; memantine 30 mg kg^-1 s.c.
[7] = test system: MK‐801‐induced social recognition deficits in rats; test: MK-801-induced social recognition deficits; conditions: MGS0008 1, 3, 10 mg kg^-1 p.o., MK-801 0.2 mg kg^-1 i.p.
[8] = test system: spontaneous locomotor activity in rats; test: Spontaneous locomotor activity; conditions: doses similar to those which block psychostimulants‐induced hyperlocomotion
[9] = test system: methamphetamine‐induced locomotor hyperactivity in rats; test: Methamphetamine-induced locomotor hyperactivity; conditions: MGS0008 1, 3, 10 mg kg^-1 p.o., methamphetamine 1 mg kg^-1 s.c.
[10] = SAD study: plasma pharmacokinetics after single oral TS-134; format: in vivo, human; conditions: for AUC / Cmax / half-life / Tmax: both, human, plasma; for AUC: AUC0‐inf; for AUC / Cmax: mean (CV[%]); for Tmax: median
[11] = MAD study: plasma pharmacokinetics after multiple oral dose titration of TS-134; format: in vivo, human; conditions: for AUC / half-life: both, human, plasma, oral, MAD Day 14, fed; for AUC: AUC0‐tau, mean (CV[%]); for half-life: t1/2, mean (CV[%])
[12] = oral, 5 mg, SAD Parts A and C, 5 mg fasted (n = 6)
[13] = oral, 10 mg, SAD Parts A and C, 10 mg fasted (n = 4)
[14] = oral, 10 mg, SAD Parts A and C, 10 mg fed (n = 3)
[15] = oral, 20 mg, SAD Parts A and C, 20 mg fasted (n = 3)
[16] = oral, 20 mg, SAD Parts A and C, 20 mg fed (n = 3)

N[C@]1(C(=O)O)[C@H]2[C@@H](C[C@@H]1F)[C@@H]2C(=O)O [MGS0008, (1S,2S,3S,5R,6S)‐2‐amino‐3‐fluorobicyclo[3.1.0]hexane‐2,6‐dicarboxylic acid]
urinary excretion rate, % of the administered doses ([1]; SAD and MAD studies, dose range 5–80 mg): 29.38 to 69.01% and 29.38–69.01%
CL renal ([1]; urine and plasma, renal clearance, range, SAD and MAD studies): 70.6 to 103 mL/min
CL renal ([1]; urine, 5 mg, CLr, mean (CV[%]), SAD Parts A and C, 5 mg fasted (n = 6)): 101 mL/min
CL renal ([1]; urine, 10 mg, CLr, mean (CV[%]), SAD Parts A and C, 10 mg fasted (n = 4)): 89.8 mL/min
CL renal ([1]; urine, 10 mg, CLr, mean (CV[%]), SAD Parts A and C, 10 mg fed (n = 3)): 103 mL/min
CL renal ([1]; urine, 20 mg, CLr, mean (CV[%]), SAD Parts A and C, 20 mg fasted (n = 3)): 73.9 mL/min
CL renal ([1]; urine, 20 mg, CLr, mean (CV[%]), SAD Parts A and C, 20 mg fed (n = 3)): 70.6 mL/min
Fe (0–48), mean (CV[%]) ([1]; urine, SAD Part B, 10 mg fed (n = 7)): 55.77 (15.99) %
Fe (0–48), mean (CV[%]) ([1]; urine, SAD Parts A and C, 5 mg fasted (n = 6)): 69.01 (10.23) %
Fe (0–48), mean (CV[%]) ([1]; urine, SAD Parts A and C, 10 mg fasted (n = 4)): 60.61 (36.10) %
Fe (0–48), mean (CV[%]) ([1]; urine, SAD Parts A and C, 10 mg fed (n = 3)): 49.65 (38.35) %
Fe (0–48), mean (CV[%]) ([1]; urine, SAD Parts A and C, 20 mg fasted (n = 3)): 38.55 (65.52) %
Fe (0–48), mean (CV[%]) ([1]; urine, SAD Parts A and C, 20 mg fed (n = 3)): 29.38 (52.53) %
effect on phencyclidine‐induced locomotor hyperactivity [2]: significantly attenuated
EC50 (mGlu3 receptor): 45.4 nM
mean CSF Cmax (molar) [3]: 6.12 nM
CL renal ([4]; 5 mg, 5 mg (n = 8)): 85.2 mL/min
CL renal ([4]; 10 mg, 10 mg (n = 8)): 88.2 mL/min
CL renal ([4]; 20 mg, 20 mg (n = 8)): 103 mL/min
CL renal ([4]; 40 mg, 40 mg (n = 8)): 93.3 mL/min
CL renal ([4]; 60 mg, 60 mg (n = 8)): 78.7 mL/min
Fe (0–24), mean (CV[%]) ([4]; 5 mg (n = 8)): 48.03 (36.10) %
Fe (0–24), mean (CV[%]) ([4]; 10 mg (n = 8)): 51.79 (24.95) %
Fe (0–24), mean (CV[%]) ([4]; 20 mg (n = 8)): 50.42 (20.58) %
Fe (0–24), mean (CV[%]) ([4]; 40 mg (n = 8)): 48.06 (13.48) %
Fe (0–24), mean (CV[%]) ([4]; 60 mg (n = 8)): 50.48 (24.14) %
Fe (0–24), mean (CV[%]) ([4]; 80 mg Cohort 5 (n = 7)): 43.69 (36.76) %
Fe (0–24), mean (CV[%]) ([4]; 80 mg Cohort 6 (n = 6)): 37.21 (35.47) %
CSF‐to‐plasma AUC ratio [5]: 2.8%
presence in the cerebrospinal fluid (CSF) after oral administration of MGS0008 [5]: detected
effect on memantine‐increased 2‐deoxy‐D‐glucose uptake (2‐DG6P) in the prefrontal cortex [6]: attenuated
effect on MK‐801‐induced impaired social memory [7]: significantly reversed
effect on spontaneous locomotor activity [8]: significantly reduced
effect on methamphetamine‐induced locomotor hyperactivity [9]: significantly attenuated
reduction of plasma AUC in the fed group (food effect) ([10]; SAD, 10 and 20 mg TS‐134): ≤ 25%
reduction of plasma Cmax in the fed group (food effect) ([10]; SAD, 10 and 20 mg TS‐134): up to 57%
AUC [10, 12]: 278 ng·h/mL
Cmax [10, 12]: 25.9 ng/mL
half-life ([10]; oral, 5 mg, t1/2, mean (CV[%]), SAD Parts A and C, 5 mg fasted (n = 6)): 7.75 h
Tmax [10, 12]: 2 h
AUC [10, 13]: 535 ng·h/mL
AUC [10, 14]: 390 ng·h/mL
Cmax [10, 13]: 60.6 ng/mL
Cmax [10, 14]: 28.1 ng/mL
half-life ([10]; oral, 10 mg, t1/2, mean (CV[%]), SAD Part B, 10 mg fed (n = 7)): 8.49 h
half-life ([10]; oral, 10 mg, t1/2, mean (CV[%]), SAD Parts A and C, 10 mg fasted (n = 4)): 8.41 h
half-life ([10]; oral, 10 mg, t1/2, mean (CV[%]), SAD Parts A and C, 10 mg fed (n = 3)): 8.7 h
Tmax [10, 13]: 2 h
Tmax [10, 14]: 4 h
AUC [10, 15]: 840 ng·h/mL
AUC [10, 16]: 677 ng·h/mL
Cmax [10, 15]: 89.4 ng/mL
Cmax [10, 16]: 60.2 ng/mL
half-life ([10]; oral, 20 mg, t1/2, mean (CV[%]), SAD Parts A and C, 20 mg fasted (n = 3)): 6.96 h
half-life ([10]; oral, 20 mg, t1/2, mean (CV[%]), SAD Parts A and C, 20 mg fed (n = 3)): 6.91 h
Tmax [10, 15]: 3 h
Tmax [10, 16]: 2 h
half-life ([10]; po, terminal half‐life (t1/2) in plasma, single and multiple oral administration of TS‐134 (SAD and MAD studies)): ~10 h
plasma Cmax of MGS0008 relative to that of MGS0274 ([10]; molar ratio, SAD and MAD studies): approximately 6 fold
plasma AUC of MGS0008 relative to that of MGS0274 ([10]; molar ratio, all treatment groups with or without food): approximately 30 fold
dose proportionality of steady‐state plasma Cmax and AUC ([11]; MAD, 5–80 mg): increased dose proportionally; also recorded: dose proportional increases
time for plasma trough concentrations to reach steady state ([11]; after initiating multiple doses of target dose levels, data not shown): ≤ 2 days
AUC ([11]; 5 mg, 5 mg (n = 8)): 233 ng·h/mL
half-life ([11]; 5 mg, 5 mg (n = 8)): 9.68 h
AUC ([11]; 10 mg, 10 mg (n = 8)): 475 ng·h/mL
half-life ([11]; 10 mg, 10 mg (n = 8)): 10.9 h
AUC ([11]; 20 mg, 20 mg (n = 8)): 817 ng·h/mL
half-life ([11]; 20 mg, 20 mg (n = 8)): 10.4 h
AUC ([11]; 40 mg, 40 mg (n = 8)): 1640 ng·h/mL
half-life ([11]; 40 mg, 40 mg (n = 8)): 10.3 h
AUC ([11]; 60 mg, 60 mg (n = 8)): 3100 ng·h/mL
half-life ([11]; 60 mg, 60 mg (n = 8)): 9.43 h
